Experimental findings from ChEMBL document CHEMBL1153211, “Evaluation of secondary amide replacements in a series of CCR5 antagonists as a means to increase intrinsic membrane permeability. Part 1: Optimization of gem-disubstituted azacycles” (Bioorg Med Chem Lett, 2010) are described below.

In series [1] the test system is Human immunodeficiency virus 1. Put plainly: Antiviral activity against HIV1 infected in human JC53-BL cells after 3 days by luciferase reporter gene assay. The format is functional, organism-based. The note with it: Human immunodeficiency virus 1, JC53BL, 72 h.
Series [2] concerns the target C-C chemokine receptor type 5 (Homo sapiens, UniProt P51681). Put plainly: Antagonist activity at human CCR5. The format is functional.
The nature of series [3]: Apparent permeability from apical to basolateral side of human Caco-2 cells after 21 days.

Chain of C-C chemokine receptor type 5 (P51681 whole entry): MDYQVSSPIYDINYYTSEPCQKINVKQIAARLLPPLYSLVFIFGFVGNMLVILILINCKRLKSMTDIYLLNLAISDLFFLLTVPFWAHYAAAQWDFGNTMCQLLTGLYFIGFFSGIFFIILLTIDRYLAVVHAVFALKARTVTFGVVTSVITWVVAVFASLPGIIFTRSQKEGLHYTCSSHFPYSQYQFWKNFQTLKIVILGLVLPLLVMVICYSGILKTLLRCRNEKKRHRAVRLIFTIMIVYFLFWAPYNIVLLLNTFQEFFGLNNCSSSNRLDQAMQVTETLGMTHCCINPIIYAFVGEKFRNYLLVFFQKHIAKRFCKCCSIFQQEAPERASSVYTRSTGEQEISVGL

Consider `Cc1ncnc(C)c1C(=O)N1C[C@H]2CN(CCC3(c4ccccc4)CCN(C(=O)C4CCCC4)C3)C[C@H]2C1` (stereo partly specified), for which the IC50 in series [1] is 0.351 µM; in series [2] it was 0.116 µM.
For `Cc1ccnc(C)c1C(=O)N1C[C@H]2CN(CCC3(c4ccccc4)CN(C(=O)C4CC(F)(F)C4)C3)C[C@H]2C1` the same measures were 0.055 µM and 0.06 µM.
Take `Cc1ncnc(C)c1C(=O)N1C[C@H]2CN(CCC3(c4cccc(F)c4)CCN(C(=O)CC(C)(C)C)CC3)C[C@H]2C1`: the IC50 in series [1] worked out at 0.447 µM.
`Cc1cc(C(F)(F)F)nc(C)c1C(=O)N1C[C@H]2CN(CCC3(c4ccccc4)CN(C(=O)C4CCC(F)(F)CC4)C3)C[C@H]2C1`: the IC50 was determined as 0.0612 µM in series [1] and 0.021 µM in series [2]. Moreover, the Papp A→B in series [3] was found to be 1.72 ×10⁻⁶ cm/s.
Take `Cc1ncnc(C)c1C(=O)N1C[C@H]2CN(CCC3(c4ccccc4)CN(C(=O)C4CCC(F)(F)CC4)C3)C[C@H]2C1`: the IC50 in series [1] came to 0.021 µM; in series [2] it was 0.028 µM.
Taken in the same sequence, the figures for `Cc1ncnc(C)c1C(=O)N1C[C@H]2CN(CCC3(c4cccc(F)c4)CCN(C(=O)C(C)C)CC3)C[C@H]2C1` were more than 0.4 µM and 0.102 µM.
For `Cc1ncnc(C)c1C(=O)N1C[C@H]2CN(CCC3(c4ccccc4)CN(S(=O)(=O)C4CCCC4)C3)C[C@H]2C1` the same measures were 0.04 µM and 0.027 µM.
Taken in the same sequence, the figures for `Cc1ccnc(C)c1C(=O)N1C[C@H]2CN(CCC3(c4ccccc4)CN(C(=O)C4CCC(F)(F)CC4)C3)C[C@H]2C1` were 0.012 µM and 0.038 µM.
For `Cc1nc(C(F)(F)F)nc(C)c1C(=O)N1C[C@H]2CN(CCC3(c4ccccc4)CN(C(=O)C4CCOC4)C3)C[C@H]2C1` (stereo partly specified), the IC50 in series [1] turned out to be 0.059 µM; in series [2], 0.038 µM.
Take `Cc1ncnc(C)c1C(=O)N1C[C@H]2CN(CCC3(c4ccccc4)CN(C(=O)C4CCCC4)C3)C[C@H]2C1`: the IC50 in series [1] came out at 0.06 µM; in series [2], 0.067 µM.
As to `Cc1ncnc(C)c1C(=O)N1C[C@H]2CN(CCC3(c4ccccc4)CN(C(=O)C(C)(C)CO)C3)C[C@H]2C1`, the IC50 in series [1] was 0.13 µM; in series [2] it was 0.056 µM.
Take `Cc1nc(C(F)(F)F)nc(C)c1C(=O)N1C[C@H]2CN(CCC3(c4ccccc4)CN(C(=O)C4CCC(F)(F)CC4)C3)C[C@H]2C1`: the IC50 is 0.004 µM in series [1] and 0.03 µM in series [2].
Compound `Cc1cc(C#N)nc(C)c1C(=O)N1C[C@H]2CN(CCC3(c4ccccc4)CCN(C(=O)C(C)(C)C)C3)C[C@H]2C1` (stereo partly specified) yielded an IC50 in series [2] of 0.069 µM.
Turning to `Cc1ncnc(C)c1C(=O)N1C[C@H]2CN(CCC3(c4ccccc4)CN(C(=O)C4CC(F)(F)C4)C3)C[C@H]2C1`, the values for the IC50 in series [1] and in series [2] were 0.039 µM and 0.03 µM, respectively.
Take `Cc1ncnc(C)c1C(=O)N1C[C@H]2CN(CCC3(c4ccccc4)CN(C(=O)C4CCOC4)C3)C[C@H]2C1` (stereo partly specified): the IC50 was 0.204 µM in series [1] and 0.055 µM in series [2].
`Cc1cc(C#N)nc(C)c1C(=O)N1C[C@H]2CN(CCC3(c4cccc(F)c4)CCN(C(=O)C(C)(C)C)CC3)C[C@H]2C1`: the concentration for half-maximal inhibition (IC50) in series [1] amounted to 0.018 µM; in series [2] it was 0.015 µM. The Papp A→B in series [3] was determined as 2.73 ×10⁻⁶ cm/s.
For `Cc1ncnc(C)c1C(=O)N1C[C@H]2CN(CCC3(c4ccccc4)CCN(C(=O)C(C)(C)C)C3)C[C@H]2C1` (stereo partly specified), 0.242 µM corresponded to half-maximal inhibition in series [2] (IC50).
Same read-out and setting: with `Cc1ncnc(C)c1C(=O)N1C[C@H]2CN(CCC3(c4cccc(F)c4)CCN(C(=O)C(C)(C)CO)CC3)C[C@H]2C1` the figure was 0.167 µM.
For the compound `Cc1cc(C#N)nc(C)c1C(=O)N1C[C@H]2CN(CCC3(c4ccccc4)CN(C(=O)C4CCC(F)(F)CC4)C3)C[C@H]2C1`, the IC50 in series [1] worked out at 0.002 µM; in series [2] it was 0.017 µM. Besides, in series [3], the Papp A→B is 0.53 ×10⁻⁶ cm/s.
As to `Cc1ncnc(C)c1C(=O)N1C[C@H]2CN(CCC3(c4ccccc4)CN(C(=O)C(C)(C)C)C3)C[C@H]2C1`, the IC50 is 0.077 µM in series [1] and 0.027 µM in series [2].
Take `Cc1ncnc(C)c1C(=O)N1C[C@H]2CN(CCC3(c4ccccc4)CN(C(=O)CC4CCCC4)C3)C[C@H]2C1`: the IC50 in series [1] was found to be 0.053 µM; in series [2], 0.028 µM.
`Cc1cc(C#N)nc(C)c1C(=O)N1C[C@H]2CN(CCC3(c4ccccc4)CCN(C(=O)C4CCCC4)C3)C[C@H]2C1` (stereo partly specified): the IC50 was found to be 0.024 µM in series [1] and 0.046 µM in series [2]. In addition, the Papp A→B in series [3] was 2.55 ×10⁻⁶ cm/s.
Turning to `Cc1cc(C#N)nc(C)c1C(=O)N1C[C@H]2CN(CCC3(c4ccccc4)CN(C(=O)C4CC(F)(F)C4)C3)C[C@H]2C1`, the IC50 worked out at 0.004 µM in series [1] and 0.024 µM in series [2]. Besides, the Papp A→B in series [3] was 0.44 ×10⁻⁶ cm/s.
For `Cc1cc(C(F)(F)F)nc(C)c1C(=O)N1C[C@H]2CN(CCC3(c4ccccc4)CN(C(=O)C4CC(F)(F)C4)C3)C[C@H]2C1` the same measures were 0.004 µM, 0.022 µM and 1.59 ×10⁻⁶ cm/s.
For `Cc1ncnc(C)c1C(=O)N1C[C@H]2CN(CCC3(c4cccc(F)c4)CCN(C(=O)C(C)(C)C)CC3)C[C@H]2C1` the same measures were 0.067 µM, 0.059 µM and 2.98 ×10⁻⁶ cm/s.
In turn, `CC(=O)N1CCC(CCN2C[C@@H]3CN(C(=O)c4c(C)ncnc4C)C[C@@H]3C2)(c2cccc(F)c2)CC1` returned an IC50 in series [2] of more than 0.5 µM.
For the compound `Cc1nc(C(F)(F)F)nc(C)c1C(=O)N1C[C@H]2CN(CCC3(c4ccccc4)CN(C(=O)C4CC(F)(F)C4)C3)C[C@H]2C1`, the IC50 in series [1] worked out at 0.023 µM; in series [2] it was 0.066 µM.
